How the values were obtained:
[1] = tested on: B. adolescentis phylogenetic group; test: ITS profiling of the Bifidobacterium community in faeces of healthy adults after 2 weeks of HMO consumption; format: in vivo, human; details: for percentage increase of B. adolescentis phylogenetic group: healthy adults, 2 weeks, faecal analyses
Experimental: (§1) A total of 100 male and female healthy adults are recruited to participate in the study. After a screening visit and run-in period of 1-2 weeks, the participants are selected and randomized into ten groups, each of 10 subjects. One group is administered a placebo product containing 2 grams of glucose. The remaining 9 groups are administered treatment product containing a) 20 g of 2′-FL, b) 10 g of 2′-FL, c) 5 g of 2′-FL, d) 20 g of LNnT, e) 10 g of LNnT, f) 5 g of LNnT, g) 20 g of a 2:1 mixture of 2′-FL and LNnT, h) 10 g of a 2:1 mixture of 2′-FL and LNnT, and i) 5 g of a 2:1 mixture of 2′-FL and LNnT for 2 weeks (the amounts correspond to a daily dosis). The placebo and treatment products are in powder form in a unit dosage container.
(§2) The study runs for 2 weeks with the participants consuming either a placebo or a treatment product daily. Participants are instructed to consume the products in the morning with breakfast. Compliance is monitored through the interactive internet enabled system.
(§3) To assess the Bifidobacterium community, ITS profiling of DNA samples is performed according to Milani et al. FEMS Microbiol. Ecol. 90, 493 (2014). […] Both B. adolescentis and B. pseudocatenulatum are members of the B. adolescentis phylogenetic group. It can be seen that oral ingestion of the HMOs clearly increases the abundance of B. adolescentis and/or B. pseudocatenulatum in the microbiota of healthy adults, as well as their relative abundance compared to the totality of other Bifidobacterium species.

[2] = tested on: totality of B. longum + B. bifidum + B. animalis lactis + B. angulatum; test: as above; format: in vivo, human; details: faecal analyses
Experimental: as §1, §2, §3

Molecule | abundance of B. adolescentis and/or B. pseudocatenulatum and relative abundance compared to the totality of other Bifidobacterium species ([1]; healthy adults carrying the FUT2 mutation compared with secretors) | percentage increase of B. adolescentis phylogenetic group ([1]; daily dose 5 g) | percentage increase of B. adolescentis phylogenetic group ([1]; daily dose 10 g) | percentage increase of B. adolescentis phylogenetic group ([1]; daily dose 20 g) | percentage increase of totality of B. longum + B. bifidum + B. animalis lactis + B. angulatum ([2]; daily dose 5 g) | percentage increase of totality of B. longum + B. bifidum + B. animalis lactis + B. angulatum ([2]; daily dose 10 g) | percentage increase of totality of B. longum + B. bifidum + B. animalis lactis + B. angulatum ([2]; daily dose 20 g)
2′-fucosyllactose [2′-FL] | increases in a manner similar to those in secretors | 50% | 325% | 120% | 0% | 20% | 15%
CC(=O)N[C@H]1[C@H](O[C@H]2[C@@H](O)[C@@H](CO)O[C@@H](O[C@H]3[C@H](O)[C@@H](O)C(O)O[C@@H]3CO)[C@@H]2O)O[C@H](CO)[C@@H](O[C@@H]2O[C@H](CO)[C@H](O)[C@H](O)[C@H]2O)[C@@H]1O (mixture of isomers) [LNnT, lacto-N-neotetraose] | – | 90% | 195% | 185% | 50% | 130% | 105%

From patent US20210252028A1, “SYNTHETIC COMPOSITION FOR MICROBIOTA MODULATION” (Glycom A/S, priority 2016, published 2021)
